Measurements: ChEMBL document CHEMBL4414548 (J Med Chem, 2019)

Key:
JAK2/TYK2 = JAK2/TYK2 (Homo sapiens, UniProt O60674+P29597); experiment: Inhibition of TYK2/JAK2 in IL23-stimulated human Kit225 cells by steady-glo luciferase assay
[1] = Partition coefficient, log P of compound by HPLC analysis; type: physicochemical; settings: octanol/water
[2] = Drug concentration in Balb/c mouse at 10 mg/kg, po after 0.05 hrs; type: ADME, organism-based; settings: in vivo, read-out: Drug uptake
[3] = AUClast in mouse at 10 mg/kg, po; type: ADME, organism-based; parameters: dose 10 mg/kg, route oral, time 0 - last; settings: in vivo
[4] = target: Tyrosine-protein kinase JAK1 (Homo sapiens, UniProt P23458); experiment: Inhibition of JAK1 JH1 domain (unknown origin)
[5] = Cmax in Balb/c mouse assessed as 6-((5-Fluoropyridin-2-yl)amino)-4-((2-(methylsulfonyl)phenyl)amino)nicotinamide level at 3 mg/kg, iv after 3 hrs; type: ADME, organism-based; parameters: dose 3 mg/kg, route intravenous; settings: in vivo
[6] = Drug concentration in Balb/c mouse at 10 mg/kg, po after 1 hr; type: ADME, organism-based; settings: in vivo, read-out: Drug uptake
[7] = target: T1, Voltage-gated inwardly rectifying potassium channel KCNH2 (Homo sapiens, UniProt Q12809); experiment: Inhibition of human ERG by fluorescence polarization assay
[8] = Metabolic stability in rat liver microsomes assessed as parent compound remaining after 10 mins; type: ADME, Microsome; settings: read-out: Stability
[9] = Cmax in Balb/c mouse assessed as 6-((5-Fluoropyridin-2-yl)amino)-4-((2-(methylsulfonyl)phenyl)amino)nicotinamide level at 3 mg/kg, iv after 5 hrs; type: ADME, organism-based; parameters: dose 3 mg/kg, route intravenous; settings: in vivo
[10] = Permeability across apical to basolateral side in human Caco2 cells; type: ADME, cell-based; settings: Caco-2, read-out: permeability
[11] = AUClast in Balb/c mouse assessed as 6-((5-Fluoropyridin-2-yl)amino)-4-((2-(methylsulfonyl)phenyl)amino)nicotinamide level at 10 mg/kg, po; type: ADME, organism-based; parameters: dose 10 mg/kg, time 0 - last, route oral; settings: in vivo
[12] = Drug concentration in Balb/c mouse at 3 mg/kg, iv after 0.5 hrs; type: ADME, organism-based; settings: in vivo, read-out: Drug uptake
[13] = target: T2, Non-receptor tyrosine-protein kinase TYK2 (Homo sapiens, UniProt P29597); experiment: Inhibition of TYK2 JH2 domain in human whole blood assessed as inhibition of IFNalpha-induced STAT5 phosphorylation preincubated for 1 hr followed by IFNalpha stimulation and measured after 15 mins by fluorescence assay; type: tissue-based
JAK3/JAK1 = JAK3/JAK1 (Homo sapiens, UniProt P23458+P52333); experiment: Inhibition of JAK1/JAK3 (unknown origin) in IL-2 stimulated cells by cell based assay
[14] = Oral bioavailability in Balb/c mouse at 10 mg/kg; type: ADME, organism-based; settings: in vivo
[15] = Metabolic stability in human liver microsomes assessed as parent compound remaining after 10 mins; type: ADME, Microsome; settings: read-out: Stability
[16] = AUClast in Balb/c mouse at 10 mg/kg, po; type: ADME, organism-based; parameters: dose 10 mg/kg, time 0 - last, route oral; settings: in vivo
[17] = Drug concentration in Balb/c mouse at 3 mg/kg, iv after 7 hrs; type: ADME, organism-based; settings: in vivo, read-out: Drug uptake
[18] = Cmax in Balb/c mouse assessed as 6-((5-Fluoropyridin-2-yl)amino)-4-((2-(methylsulfonyl)phenyl)amino)nicotinamide level at 10 mg/kg, po after 1 hr; type: ADME, organism-based; parameters: dose 10 mg/kg, route oral; settings: in vivo
[19] = Clearance in Balb/c mouse at 3 mg/kg, iv; type: ADME, organism-based; settings: in vivo
[20] = Cmax in Balb/c mouse assessed as 6-((5-Fluoropyridin-2-yl)amino)-4-((2-(methylsulfonyl)phenyl)amino)nicotinamide level at 10 mg/kg, po after 5 hrs; type: ADME, organism-based; parameters: dose 10 mg/kg, route oral; settings: in vivo
[21] = Half life in Balb/c mouse at 3 mg/kg, iv; type: ADME, organism-based; settings: in vivo
[22] = Drug concentration in Balb/c mouse at 3 mg/kg, iv after 3 hrs; type: ADME, organism-based; settings: in vivo, read-out: Drug uptake
JAK2/JAK1 = JAK2/JAK1 (Homo sapiens, UniProt O60674+P23458); experiment: Inhibition of JAK1/JAK2 (unknown origin) in GM-CSF stimulated cells by cell based assay
[23] = Cmax in Balb/c mouse assessed as 6-((5-Fluoropyridin-2-yl)amino)-4-((2-(methylsulfonyl)phenyl)amino)nicotinamide level at 3 mg/kg, iv after 0.05 hrs; type: ADME, organism-based; parameters: dose 3 mg/kg, route intravenous; settings: in vivo
[24] = Drug concentration in Balb/c mouse at 10 mg/kg, po after 0.5 hrs; type: ADME, organism-based; settings: in vivo, read-out: Drug uptake
[25] = Drug concentration in Balb/c mouse at 3 mg/kg, iv after 0.05 hrs; type: ADME, organism-based; settings: in vivo, read-out: Drug uptake
[26] = Cmax in mouse at 10 mg/kg, po; type: ADME, organism-based; parameters: dose 10 mg/kg, route oral; settings: in vivo
[27] = target: T2, Non-receptor tyrosine-protein kinase TYK2; experiment: Inhibition of fluorescein-labeled kinase tracer binding to His-TVMV-fused TYK2 JH2 domain (575 to 869 residues) (unknown origin) measured after 90 mins by HTRF assay
[28] = target: Mast/stem cell growth factor receptor Kit (Homo sapiens, UniProt P10721); experiment: Inhibition of cKIT (unknown origin)
[29] = target: 3',5'-cyclic-AMP phosphodiesterase 4D (Homo sapiens, UniProt Q08499); experiment: Inhibition of [3H]cAMP binding to recombinant human His-Tb fused PDE4D2 (86 to 413 residues) expressed in Escherichia coli using [3H]cAMP as substrate preincubated for 10 mins followed by [3H]cAMP addition and measured after 1 hr by scintillation proximity assay
[30] = Cmax in Balb/c mouse assessed as 6-((5-Fluoropyridin-2-yl)amino)-4-((2-(methylsulfonyl)phenyl)amino)nicotinamide level at 10 mg/kg, po after 0.05 hrs; type: ADME, organism-based; parameters: dose 10 mg/kg, route oral; settings: in vivo
[31] = target: Non-receptor tyrosine-protein kinase TYK2 (Mus musculus, UniProt Q9R117); experiment: Inhibition of TYK2 JH2 domain in mouse whole blood assessed as inhibition of IFNalpha-induced STAT1 phosphorylation preincubated for 1 hr followed by IFNalpha stimulation and measured after 15 mins by fluorescence assay; type: tissue-based
[32] = Cmax in Balb/c mouse assessed as 6-((5-Fluoropyridin-2-yl)amino)-4-((2-(methylsulfonyl)phenyl)amino)nicotinamide level at 3 mg/kg, iv after 1 hr; type: ADME, organism-based; parameters: dose 3 mg/kg, route intravenous; settings: in vivo
[33] = target: T1, Voltage-gated inwardly rectifying potassium channel KCNH2; experiment: Inhibition of human ERG by patch clamp assay
[34] = Cmax in Balb/c mouse assessed as 6-((5-Fluoropyridin-2-yl)amino)-4-((2-(methylsulfonyl)phenyl)amino)nicotinamide level at 10 mg/kg, po after 3 hrs; type: ADME, organism-based; parameters: dose 10 mg/kg, route oral; settings: in vivo
[35] = Drug concentration in Balb/c mouse at 10 mg/kg, po after 7 hrs; type: ADME, organism-based; settings: in vivo, read-out: Drug uptake
[36] = Drug concentration in Balb/c mouse at 3 mg/kg, iv after 5 hrs; type: ADME, organism-based; settings: in vivo, read-out: Drug uptake
[37] = Volume of distribution at steady state in Balb/c mouse at 3 mg/kg, iv; type: ADME, organism-based; settings: in vivo, read-out: Vdss
[38] = Cmax in Balb/c mouse assessed as 6-((5-Fluoropyridin-2-yl)amino)-4-((2-(methylsulfonyl)phenyl)amino)nicotinamide level at 3 mg/kg, iv after 7 hrs; type: ADME, organism-based; parameters: dose 3 mg/kg, route intravenous; settings: in vivo
[39] = Metabolic stability in mouse liver microsomes assessed as parent compound remaining after 10 mins; type: ADME, Microsome; settings: read-out: Stability
[40] = target: T2, Non-receptor tyrosine-protein kinase TYK2; experiment: Inhibition of TYK2 JH1 domain (unknown origin)
[41] = Cmax in Balb/c mouse assessed as 6-((5-Fluoropyridin-2-yl)amino)-4-((2-(methylsulfonyl)phenyl)amino)nicotinamide level at 3 mg/kg, iv after 0.5 hrs; type: ADME, organism-based; parameters: dose 3 mg/kg, route intravenous; settings: in vivo
[42] = AUClast in Balb/c mouse assessed as 6-((5-Fluoropyridin-2-yl)amino)-4-((2-(methylsulfonyl)phenyl)amino)nicotinamide level at 3 mg/kg, iv; type: ADME, organism-based; parameters: dose 3 mg/kg, route intravenous, time 0 - last; settings: in vivo
[43] = Drug concentration in Balb/c mouse at 10 mg/kg, po after 5 hrs; type: ADME, organism-based; settings: in vivo, read-out: Drug uptake
[44] = target: Tyrosine-protein kinase JAK2 (Homo sapiens, UniProt O60674); experiment: Inhibition of JAK2 JH1 domain (unknown origin)
[45] = Drug concentration in Balb/c mouse at 10 mg/kg, po after 3 hrs; type: ADME, organism-based; settings: in vivo, read-out: Drug uptake
JAK1/TYK2 = JAK1/TYK2 (Homo sapiens, UniProt P23458+P29597); experiment: Inhibition of TYK2/JAK1 in IFNalpha-stimulated human Kit225 cells by steady-glo luciferase assay
[46] = Cmax in Balb/c mouse assessed as 6-((5-Fluoropyridin-2-yl)amino)-4-((2-(methylsulfonyl)phenyl)amino)nicotinamide level at 10 mg/kg, po after 7 hrs; type: ADME, organism-based; parameters: dose 10 mg/kg, route oral; settings: in vivo
[47] = AUClast in Balb/c mouse at 3 mg/kg, iv; type: ADME, organism-based; parameters: dose 3 mg/kg, route intravenous, time 0 - last; settings: in vivo
[48] = Efflux ratio of permeability in human Caco2; type: ADME, cell-based; settings: Caco-2
[49] = Cmax in Balb/c mouse assessed as 6-((5-Fluoropyridin-2-yl)amino)-4-((2-(methylsulfonyl)phenyl)amino)nicotinamide level at 10 mg/kg, po after 0.5 hrs; type: ADME, organism-based; parameters: dose 10 mg/kg, route oral; settings: in vivo
[50] = Drug concentration in Balb/c mouse at 3 mg/kg, iv after 1 hr; type: ADME, organism-based; settings: in vivo, read-out: Drug uptake

T2 sequence (P29597 whole entry, the tested form may be a part): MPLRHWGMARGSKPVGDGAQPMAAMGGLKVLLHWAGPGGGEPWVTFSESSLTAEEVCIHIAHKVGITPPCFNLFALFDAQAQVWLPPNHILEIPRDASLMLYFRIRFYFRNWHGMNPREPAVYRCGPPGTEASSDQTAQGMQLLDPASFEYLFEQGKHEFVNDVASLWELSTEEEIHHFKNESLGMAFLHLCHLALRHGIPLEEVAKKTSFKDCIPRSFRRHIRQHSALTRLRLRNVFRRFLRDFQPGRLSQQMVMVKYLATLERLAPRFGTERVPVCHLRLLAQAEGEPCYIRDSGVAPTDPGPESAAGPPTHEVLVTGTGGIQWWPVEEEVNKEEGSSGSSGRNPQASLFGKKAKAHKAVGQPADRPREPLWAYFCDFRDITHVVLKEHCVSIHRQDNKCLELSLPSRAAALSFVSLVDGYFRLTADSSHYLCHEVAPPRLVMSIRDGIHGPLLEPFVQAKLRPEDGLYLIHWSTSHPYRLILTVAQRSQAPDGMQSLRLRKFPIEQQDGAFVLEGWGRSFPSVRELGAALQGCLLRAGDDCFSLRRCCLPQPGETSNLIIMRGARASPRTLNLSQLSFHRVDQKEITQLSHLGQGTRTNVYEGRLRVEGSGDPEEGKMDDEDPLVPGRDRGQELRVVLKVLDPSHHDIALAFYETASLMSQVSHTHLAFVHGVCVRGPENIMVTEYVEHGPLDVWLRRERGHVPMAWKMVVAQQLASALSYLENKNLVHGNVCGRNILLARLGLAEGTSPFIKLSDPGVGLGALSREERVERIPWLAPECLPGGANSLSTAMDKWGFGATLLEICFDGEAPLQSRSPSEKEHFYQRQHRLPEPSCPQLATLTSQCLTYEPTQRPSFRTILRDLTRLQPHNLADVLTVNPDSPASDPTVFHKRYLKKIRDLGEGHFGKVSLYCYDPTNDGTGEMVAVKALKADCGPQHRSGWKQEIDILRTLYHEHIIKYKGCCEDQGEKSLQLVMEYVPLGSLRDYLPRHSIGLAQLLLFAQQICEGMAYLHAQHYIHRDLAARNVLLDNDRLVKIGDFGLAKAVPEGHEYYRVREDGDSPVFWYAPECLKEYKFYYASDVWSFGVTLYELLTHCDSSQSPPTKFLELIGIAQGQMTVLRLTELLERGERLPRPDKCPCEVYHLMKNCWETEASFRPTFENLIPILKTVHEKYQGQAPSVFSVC
T1 sequence (Q12809 whole entry): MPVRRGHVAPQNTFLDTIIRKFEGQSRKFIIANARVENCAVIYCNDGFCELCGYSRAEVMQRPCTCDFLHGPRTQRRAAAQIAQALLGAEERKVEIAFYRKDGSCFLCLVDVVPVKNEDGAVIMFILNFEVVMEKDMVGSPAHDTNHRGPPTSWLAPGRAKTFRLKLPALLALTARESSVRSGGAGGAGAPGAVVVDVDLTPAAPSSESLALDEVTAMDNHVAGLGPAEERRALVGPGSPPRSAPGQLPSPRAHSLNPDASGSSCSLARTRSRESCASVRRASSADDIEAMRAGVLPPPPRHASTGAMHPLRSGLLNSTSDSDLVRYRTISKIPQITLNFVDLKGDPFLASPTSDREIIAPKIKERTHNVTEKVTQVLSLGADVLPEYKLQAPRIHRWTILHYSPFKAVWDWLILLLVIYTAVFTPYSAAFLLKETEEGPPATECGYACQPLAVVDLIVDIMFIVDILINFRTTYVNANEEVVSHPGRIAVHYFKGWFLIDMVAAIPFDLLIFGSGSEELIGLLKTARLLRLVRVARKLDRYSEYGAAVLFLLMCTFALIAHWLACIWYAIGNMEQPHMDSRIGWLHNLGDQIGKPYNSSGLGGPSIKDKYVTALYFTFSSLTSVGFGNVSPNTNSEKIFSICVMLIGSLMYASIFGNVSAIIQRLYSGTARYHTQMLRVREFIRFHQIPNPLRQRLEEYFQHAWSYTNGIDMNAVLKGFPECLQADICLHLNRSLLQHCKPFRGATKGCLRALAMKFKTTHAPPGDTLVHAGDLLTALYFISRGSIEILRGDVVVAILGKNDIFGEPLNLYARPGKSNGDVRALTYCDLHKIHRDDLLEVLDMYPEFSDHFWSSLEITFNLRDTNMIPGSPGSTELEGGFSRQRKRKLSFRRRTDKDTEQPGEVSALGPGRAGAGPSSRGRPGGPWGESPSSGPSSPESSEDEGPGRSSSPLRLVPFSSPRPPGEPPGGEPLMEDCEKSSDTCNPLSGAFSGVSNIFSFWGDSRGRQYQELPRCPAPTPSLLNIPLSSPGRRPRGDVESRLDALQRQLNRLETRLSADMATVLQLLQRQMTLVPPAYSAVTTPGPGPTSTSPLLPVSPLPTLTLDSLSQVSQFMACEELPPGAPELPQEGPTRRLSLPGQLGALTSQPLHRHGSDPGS
Sequence of Non-receptor tyrosine-protein kinase TYK2 (Mus musculus, UniProt Q9R117) (Q9R117 whole entry, the tested form may be a part): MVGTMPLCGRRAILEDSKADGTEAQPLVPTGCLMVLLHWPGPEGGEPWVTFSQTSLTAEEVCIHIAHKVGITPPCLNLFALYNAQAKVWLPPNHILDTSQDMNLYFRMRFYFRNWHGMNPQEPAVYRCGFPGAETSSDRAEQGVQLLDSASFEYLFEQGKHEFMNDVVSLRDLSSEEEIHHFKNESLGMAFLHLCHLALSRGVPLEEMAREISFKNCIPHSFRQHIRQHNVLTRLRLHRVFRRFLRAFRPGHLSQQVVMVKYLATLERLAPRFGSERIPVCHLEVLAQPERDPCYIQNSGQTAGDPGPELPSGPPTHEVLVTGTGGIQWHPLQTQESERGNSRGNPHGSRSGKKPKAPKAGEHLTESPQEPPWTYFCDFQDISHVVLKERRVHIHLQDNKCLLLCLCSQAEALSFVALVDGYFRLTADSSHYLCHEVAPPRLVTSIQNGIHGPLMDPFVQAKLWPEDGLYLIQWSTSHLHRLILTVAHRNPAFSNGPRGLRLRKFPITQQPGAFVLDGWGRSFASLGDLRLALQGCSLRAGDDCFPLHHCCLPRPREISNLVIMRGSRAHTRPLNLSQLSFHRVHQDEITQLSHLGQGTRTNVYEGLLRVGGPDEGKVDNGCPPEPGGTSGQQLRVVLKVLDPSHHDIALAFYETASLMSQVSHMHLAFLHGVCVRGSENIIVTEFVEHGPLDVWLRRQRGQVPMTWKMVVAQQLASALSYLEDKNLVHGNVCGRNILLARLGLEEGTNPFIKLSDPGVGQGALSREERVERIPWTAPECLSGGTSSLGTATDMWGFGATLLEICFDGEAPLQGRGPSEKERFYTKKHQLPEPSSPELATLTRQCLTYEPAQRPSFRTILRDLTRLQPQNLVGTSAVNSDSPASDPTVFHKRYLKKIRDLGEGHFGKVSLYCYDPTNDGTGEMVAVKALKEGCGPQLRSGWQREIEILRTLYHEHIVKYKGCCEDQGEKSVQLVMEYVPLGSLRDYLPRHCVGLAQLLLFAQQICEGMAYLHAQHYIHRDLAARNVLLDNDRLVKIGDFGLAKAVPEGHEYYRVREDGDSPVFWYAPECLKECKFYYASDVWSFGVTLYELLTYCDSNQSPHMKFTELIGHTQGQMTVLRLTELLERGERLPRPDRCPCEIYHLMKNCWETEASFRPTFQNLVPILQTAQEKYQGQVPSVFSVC
Sequence of JAK2/TYK2 (O60674 whole entry): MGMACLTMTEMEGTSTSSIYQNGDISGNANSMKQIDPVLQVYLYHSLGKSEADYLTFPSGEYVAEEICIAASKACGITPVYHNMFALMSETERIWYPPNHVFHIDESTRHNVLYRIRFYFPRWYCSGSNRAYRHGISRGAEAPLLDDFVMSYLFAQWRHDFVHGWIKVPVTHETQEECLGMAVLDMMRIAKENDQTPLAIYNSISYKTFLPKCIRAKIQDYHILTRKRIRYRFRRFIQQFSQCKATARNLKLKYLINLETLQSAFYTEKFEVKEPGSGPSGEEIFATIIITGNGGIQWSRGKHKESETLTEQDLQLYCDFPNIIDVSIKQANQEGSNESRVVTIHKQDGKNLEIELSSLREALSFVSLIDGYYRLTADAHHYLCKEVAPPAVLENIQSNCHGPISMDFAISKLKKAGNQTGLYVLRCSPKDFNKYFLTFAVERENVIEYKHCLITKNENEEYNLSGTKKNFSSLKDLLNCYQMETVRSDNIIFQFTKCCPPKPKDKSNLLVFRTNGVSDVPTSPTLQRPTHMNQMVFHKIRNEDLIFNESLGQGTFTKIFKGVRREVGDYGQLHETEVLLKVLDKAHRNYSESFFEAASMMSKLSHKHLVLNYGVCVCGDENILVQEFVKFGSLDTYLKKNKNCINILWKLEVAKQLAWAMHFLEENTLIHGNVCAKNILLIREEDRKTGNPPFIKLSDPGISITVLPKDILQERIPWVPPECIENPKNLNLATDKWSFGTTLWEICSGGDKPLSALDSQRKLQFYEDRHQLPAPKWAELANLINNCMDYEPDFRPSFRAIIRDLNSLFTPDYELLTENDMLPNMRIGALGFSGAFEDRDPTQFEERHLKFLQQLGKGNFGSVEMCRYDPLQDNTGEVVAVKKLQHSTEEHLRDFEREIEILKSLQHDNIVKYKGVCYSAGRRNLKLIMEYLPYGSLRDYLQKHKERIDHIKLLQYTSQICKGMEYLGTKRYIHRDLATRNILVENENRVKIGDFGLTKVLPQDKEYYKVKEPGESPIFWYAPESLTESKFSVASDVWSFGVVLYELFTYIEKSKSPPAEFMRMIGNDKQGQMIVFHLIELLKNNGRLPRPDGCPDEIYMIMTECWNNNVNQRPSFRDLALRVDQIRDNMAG
Sequence of JAK2/TYK2 (P29597 whole entry): as the sequence (P29597 whole entry, the tested form may be a part) above
Sequence of Tyrosine-protein kinase JAK2 (O60674 whole entry, the tested form may be a part): as the sequence (O60674 whole entry) above

SMILES: CNC(=O)c1cnc(Nc2ccc(F)cn2)cc1Nc1ccccc1S(C)(=O)=O
- IC50 (JAK2/TYK2): 63 nM
- logP [1]: 2.61
- concentration at 0.05 h [2]: 780 nM
- AUC(0-t) [3]: 9.83 µM·h
- IC50 [4]: > 50000 nM
- Cmax [5]: 33 nM
- concentration at 1 h [6]: 1600 nM
- IC50 [7]: 25000 nM
- remaining at 10 min [8]: 85%
- Cmax [9]: 41 nM
- Papp A→B [10]: 4.8 ×10⁻⁶ cm/s
- AUClast [11]: 0.2 µM·h
- concentration at 0.5 h [12]: 2100 nM
- IC50 [13]: 180 nM
- IC50 (JAK3/JAK1): > 12500 nM
- bioavailability [14]: 35%
- remaining at 10 min [15]: 90%
- AUC(0-t) [16]: 8.1 µM·h
- concentration at 7 h [17]: 190 nM
- Cmax [18]: 21 nM
- clearance [19]: 15 mL/min/kg
- Cmax [20]: 47 nM
- half-life [21]: 3 h
- concentration at 3 h [22]: 530 nM
- IC50 (JAK2/JAK1): > 12500 nM
- Cmax [23]: 51 nM
- concentration at 0.5 h [24]: 1400 nM
- concentration at 0.05 h [25]: 3500 nM
- Cmax [26]: 1620 nM
- IC50 [27]: 0.92 nM
- IC50 [28]: 100 nM
- IC50 [29]: 4200 nM
- Cmax [30]: 9.8 nM
- IC50 [31]: 450 nM
- Cmax [32]: 84 nM
- IC50 [33]: 2500 nM
- Cmax [34]: 28 nM
- concentration at 7 h [35]: 450 nM
- concentration at 5 h [36]: 440 nM
- Vd [37]: 2.8 L/kg
- Cmax [38]: 54 nM
- remaining at 10 min [39]: 87%
- IC50 [40]: > 50000 nM
- Cmax [41]: 110 nM
- AUClast [42]: 0.36 µM·h
- concentration at 5 h [43]: 1400 nM
- IC50 [44]: > 50000 nM
- concentration at 3 h [45]: 1500 nM
- IC50 (JAK1/TYK2): 63 nM
- Cmax [46]: 24 nM
- AUC(0-t) [47]: 7 µM·h
- efflux ratio [48]: 10
- Cmax [49]: 14 nM
- concentration at 1 h [50]: 2100 nM
